From patent publication US11739098B2 (BRISTOL-MYERS SQUIBB COMPANY, priority 2017, dated 2023)

Assays:
Assay type in all cases: cell-based
[1] = biological target: T1, human TLR9 (Homo sapiens, UniProt Q9NR96); assay: TLR9 inhibition reporter assay (HEK-Blue cells, SEAP reporter, ODN2006 stimulation); details: HEK-Blue cells overexpressing human TLR9, SEAP reporter, ODN2006 5 nM
T1 construct: host or cells: HEK-Blue cells (HEK293-derived reporter line)
T1 sequence (Q9NR96 26-1032): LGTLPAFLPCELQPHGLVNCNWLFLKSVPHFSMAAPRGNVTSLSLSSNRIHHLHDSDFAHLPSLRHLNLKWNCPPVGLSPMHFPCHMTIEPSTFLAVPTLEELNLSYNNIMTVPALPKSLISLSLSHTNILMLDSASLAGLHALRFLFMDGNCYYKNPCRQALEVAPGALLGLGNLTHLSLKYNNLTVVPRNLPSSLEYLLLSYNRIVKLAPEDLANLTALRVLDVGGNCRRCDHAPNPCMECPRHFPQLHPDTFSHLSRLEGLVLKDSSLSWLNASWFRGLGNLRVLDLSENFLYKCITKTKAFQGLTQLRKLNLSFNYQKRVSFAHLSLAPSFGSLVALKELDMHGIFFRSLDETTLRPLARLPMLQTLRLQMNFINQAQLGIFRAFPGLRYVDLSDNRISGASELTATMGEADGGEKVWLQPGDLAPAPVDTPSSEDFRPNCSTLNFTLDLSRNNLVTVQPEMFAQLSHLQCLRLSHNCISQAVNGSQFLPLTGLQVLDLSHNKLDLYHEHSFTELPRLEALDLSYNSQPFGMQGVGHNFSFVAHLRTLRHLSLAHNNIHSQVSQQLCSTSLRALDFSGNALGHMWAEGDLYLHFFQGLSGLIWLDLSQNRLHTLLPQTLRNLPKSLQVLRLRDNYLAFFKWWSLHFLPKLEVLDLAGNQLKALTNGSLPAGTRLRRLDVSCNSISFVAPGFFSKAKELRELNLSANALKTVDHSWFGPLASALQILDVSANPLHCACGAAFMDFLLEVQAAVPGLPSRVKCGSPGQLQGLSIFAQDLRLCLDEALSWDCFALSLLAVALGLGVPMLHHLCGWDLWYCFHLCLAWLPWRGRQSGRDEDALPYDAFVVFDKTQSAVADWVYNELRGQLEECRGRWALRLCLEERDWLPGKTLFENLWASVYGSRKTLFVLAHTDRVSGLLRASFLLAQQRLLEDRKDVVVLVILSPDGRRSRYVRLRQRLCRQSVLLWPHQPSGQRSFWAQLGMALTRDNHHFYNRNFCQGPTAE
Summary of the method: (§1)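 Percent inhibition of agonist-induced SEAP secretion in HEK-Blue cells after 22 h at 37 °C. Stimuli: 7.5 μM gardiquimod, 15.9 μM R848, 5 nM ODN2006 for TLR7, TLR8 and TLR9, added after 30 min compound exposure over a 0.05 nM–50 μM range.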

[2] = biological target: T2, human TLR8 (Homo sapiens, UniProt Q9NR97); assay: TLR8 inhibition reporter assay (HEK-Blue cells, SEAP reporter, R848 stimulation); details: HEK-Blue cells overexpressing human TLR8, SEAP reporter, R848 15.9 μM
T2 construct: host or cells: HEK-Blue cells (HEK293-derived reporter line)
T2 sequence (Q9NR97 27-1041): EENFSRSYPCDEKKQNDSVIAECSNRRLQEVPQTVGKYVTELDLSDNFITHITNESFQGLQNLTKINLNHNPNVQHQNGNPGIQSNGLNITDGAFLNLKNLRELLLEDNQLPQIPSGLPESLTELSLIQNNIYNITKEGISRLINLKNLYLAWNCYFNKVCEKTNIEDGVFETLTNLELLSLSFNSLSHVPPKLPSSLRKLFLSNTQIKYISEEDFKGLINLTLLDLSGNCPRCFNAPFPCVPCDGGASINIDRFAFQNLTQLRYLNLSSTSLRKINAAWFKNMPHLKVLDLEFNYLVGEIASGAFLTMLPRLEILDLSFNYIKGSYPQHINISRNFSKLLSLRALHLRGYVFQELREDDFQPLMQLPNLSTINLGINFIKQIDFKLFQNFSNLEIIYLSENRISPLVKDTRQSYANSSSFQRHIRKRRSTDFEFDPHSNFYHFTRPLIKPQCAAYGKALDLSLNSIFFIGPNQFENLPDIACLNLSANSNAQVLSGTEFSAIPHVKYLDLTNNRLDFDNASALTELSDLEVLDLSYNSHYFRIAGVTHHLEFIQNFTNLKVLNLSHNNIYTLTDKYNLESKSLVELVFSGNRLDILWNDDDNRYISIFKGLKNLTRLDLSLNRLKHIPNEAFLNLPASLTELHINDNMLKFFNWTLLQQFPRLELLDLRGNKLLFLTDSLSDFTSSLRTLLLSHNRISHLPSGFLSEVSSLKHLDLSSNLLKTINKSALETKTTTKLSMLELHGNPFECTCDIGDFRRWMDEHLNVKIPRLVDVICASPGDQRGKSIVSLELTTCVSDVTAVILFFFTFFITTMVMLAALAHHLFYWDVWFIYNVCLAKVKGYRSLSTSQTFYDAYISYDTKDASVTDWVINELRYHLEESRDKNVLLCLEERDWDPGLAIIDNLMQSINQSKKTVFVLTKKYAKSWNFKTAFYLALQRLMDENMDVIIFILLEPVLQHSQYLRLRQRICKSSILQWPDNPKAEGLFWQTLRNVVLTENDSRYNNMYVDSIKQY
Summary of the method: as §1

[3] = biological target: T3, human TLR7 (Homo sapiens, UniProt Q9NYK1); assay: TLR7 inhibition reporter assay (HEK-Blue cells, SEAP reporter, gardiquimod stimulation); details: HEK-Blue cells overexpressing human TLR7, SEAP reporter, gardiquimod 7.5 μM
T3 construct: host or cells: HEK-Blue cells (HEK293-derived reporter line)
T3 sequence (Q9NYK1 27-1049): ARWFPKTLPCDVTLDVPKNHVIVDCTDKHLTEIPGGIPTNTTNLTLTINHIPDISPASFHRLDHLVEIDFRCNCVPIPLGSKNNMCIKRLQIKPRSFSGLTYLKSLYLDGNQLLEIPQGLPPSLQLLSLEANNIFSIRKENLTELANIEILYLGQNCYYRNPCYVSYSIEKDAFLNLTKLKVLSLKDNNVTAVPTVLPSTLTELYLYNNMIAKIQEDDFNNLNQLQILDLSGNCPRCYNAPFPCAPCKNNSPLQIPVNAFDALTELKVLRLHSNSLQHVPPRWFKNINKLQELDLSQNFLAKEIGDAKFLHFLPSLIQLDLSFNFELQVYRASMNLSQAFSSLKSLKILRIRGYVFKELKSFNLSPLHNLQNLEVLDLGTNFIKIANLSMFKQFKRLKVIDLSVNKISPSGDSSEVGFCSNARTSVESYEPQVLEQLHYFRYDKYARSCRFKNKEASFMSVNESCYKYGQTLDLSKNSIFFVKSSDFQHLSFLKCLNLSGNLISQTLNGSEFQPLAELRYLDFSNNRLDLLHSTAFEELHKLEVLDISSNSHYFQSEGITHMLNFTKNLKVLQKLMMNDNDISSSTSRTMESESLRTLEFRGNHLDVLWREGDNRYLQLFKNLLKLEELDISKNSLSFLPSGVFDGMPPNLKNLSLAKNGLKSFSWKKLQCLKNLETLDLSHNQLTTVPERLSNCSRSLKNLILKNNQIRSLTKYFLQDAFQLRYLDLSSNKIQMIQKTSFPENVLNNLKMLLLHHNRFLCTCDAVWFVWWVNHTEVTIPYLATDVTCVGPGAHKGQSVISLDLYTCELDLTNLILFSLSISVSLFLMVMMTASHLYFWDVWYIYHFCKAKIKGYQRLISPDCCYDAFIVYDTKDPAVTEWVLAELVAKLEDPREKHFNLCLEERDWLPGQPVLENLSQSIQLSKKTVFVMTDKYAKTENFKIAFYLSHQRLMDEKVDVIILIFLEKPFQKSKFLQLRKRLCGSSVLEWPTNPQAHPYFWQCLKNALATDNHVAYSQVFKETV
Summary of the method: as §1

Structure (SMILES)	IC50 [1]	IC50 [2]	IC50 [3]
CCc1c(-c2ccnc3[nH]ncc23)[nH]c2ccc(C3CCNCC3F)cc12 (stereo not drawn) [Example 173, 4-(3-ethyl-5-(3-fluoropiperidin-4-yl)-1H-indol-2-yl)-1H-pyrazolo[3,4-b]pyridine]	1000 to 50000 nM	< 100 nM	100 to 1000 nM
CC(C)c1c(-c2ccnc3c2ccn3S(C)(=O)=O)[nH]c2ccc(C3CCN(C(=O)CN(C)C)CC3)cc12 [Example 450, 2-(dimethylamino)-1-(4-(3-isopropyl-2-(1-(methylsulfonyl)-1H-pyrrolo[2,3-b]pyridin-4-yl)-1H-indol-5-yl)piperidin-1-yl)ethanone]	100 to 1000 nM	< 100 nM	1000 to 50000 nM
Cc1cc(-c2[nH]c3ccc(C4CCNCC4)cc3c2C(C)C)cn2c(C(N)=O)cnc12 [Example 261, 6-(3-isopropyl-5-(piperidin-4-yl)-1H-indol-2-yl)-8-methylimidazo[1,2-a]pyridine-3-carboxamide]	1000 to 50000 nM	100 to 1000 nM	< 100 nM
CNCC(=O)N1CCC(c2ccc3[nH]c(-c4cc(C)n5cncc5c4)c(C(C)C)c3c2)CC1 [Example 530, 1-(4-(3-isopropyl-2-(5-methylimidazo[1,5-a]pyridin-7-yl)-1H-indol-5-yl)piperidin-1-yl)-2-(methylamino)ethan-1-one]	100 to 1000 nM	< 100 nM	< 100 nM
CNC(=O)CN1CCC(c2ccc3[nH]c(-c4cnc5c(cnn5C)c4)c(C(C)C)c3c2)CC1 [Example 366, 2-(4-(3-isopropyl-2-(1-methyl-1H-pyrazolo[3,4-b]pyridin-5-yl)-1H-indol-5-yl)piperidin-1-yl)-N-methylacetamide]	1000 to 50000 nM	< 100 nM	< 100 nM
CC(C)c1c(-c2ccc3ncsc3n2)[nH]c2ccc(C3CCNCC3)cc12 [Example 209, 5-(3-isopropyl-5-(piperidin-4-yl)-1H-indol-2-yl) thiazolo[5,4-b]pyridine]	1000 to 50000 nM	< 100 nM	< 100 nM
CC(C)c1c(-c2ccc3ncnn3n2)[nH]c2ccc(C3CCN(CC(C)(C)O)CC3)cc12 [Example 746, 1-(4-(2-([1,2,4]triazolo[1,5-b]pyridazin-6-yl)-3-isopropyl-1H-indol-5-yl)piperidin-1-yl)-2-methylpropan-2-ol]	1000 to 50000 nM	< 100 nM	< 100 nM
COc1cc(-c2[nH]c3ccc(C4CCN(C(=O)CN(C)C)CC4)cc3c2C(C)C)cc2ncnn12 [Example 532, 2-(dimethylamino)-1-(4-(3-isopropyl-2-(5-methoxy-[1,2,4]triazolo[1,5-a]pyridin-7-yl)-1H-indol-5-yl)piperidin-1-yl)ethan-1-one]	1000 to 50000 nM	< 100 nM	< 100 nM
COc1cc(-c2[nH]c3ccc(C4CCN(CC(=O)N(C)C)CC4)cc3c2C(C)C)c2ccccc2n1 [Example 340, 2-(4-(3-isopropyl-2-(2-5 methoxyquinolin-4-yl)-1H-indol-5-yl)piperidin-1-yl)-N,N-dimethylacetamide]	1000 to 50000 nM	100 to 1000 nM	< 100 nM
COc1cc(-c2[nH]c3ccc(C4CCN(CC(C)(C)O)CC4)cc3c2C(C)C)cc2nccn12 [Example 758, 1-(4-(3-isopropyl-2-(5-methoxyimidazo[1,2-a]pyridin-7-yl)-1H-indol-5-yl)piperidin-1-yl)-2-methylpropan-2-ol]	100 to 1000 nM	< 100 nM	100 to 1000 nM
C[C@@H](O)CC(=O)N1CCC(c2ccc3[nH]c(-c4cc(F)c5nccn5c4)c(CC(F)F)c3c2)CC1 [Example 603, (R)-1-(4-(3-(2,2-difluoroethyl)-2-(8-fluoroimidazo[1,2-a]pyridin-6-yl)-1H-indol-5-yl)piperidin-1-yl)-3-hydroxybutan-1-one]	> 50000 nM	> 3130 nM	100 to 1000 nM
Cc1cc(-c2[nH]c3ccc(C4CCN(C(=O)CN(C)C)CC4)cc3c2C(C)C)cc2nccnc12 [Example 518, 2-(dimethylamino)-1-(4-(3-isopropyl-2-(8-methylquinoxalin-6-yl)-1H-indol-5-yl)piperidin-1-yl)ethan-1-one]	1000 to 50000 nM	< 100 nM	< 100 nM
CNC(=O)CN1CCC(c2ccc3[nH]c(-c4cn5ccnc5c(C)c4C)c(C(C)C)c3c2)CC1 [Example 413, 2-(4-(2-(7,8-dimethylimidazo[1,2-a]pyridin-6-yl)-3-isopropyl-1H-indol-5-yl)piperidin-1-yl)-N-methylacetamide]	100 to 1000 nM	< 100 nM	< 100 nM
CCc1c(-c2ccnc3[nH]ncc23)[nH]c2ccc(C3CCN(Cc4cn[nH]n4)CC3)cc12 [Example 892, 4-(5-(1-((2H-1,2,3-triazol-4-yl)methyl)piperidin-4-yl)-3-ethyl-1H-indol-2-yl)-1H-pyrazolo[3,4-b]pyridine]	1000 to 50000 nM	< 100 nM	< 100 nM
